Source: US20030091975A1, “Multiple determinants for metabolic phenotypes” (priority 2001, published 2003)
Marks after values point to notes of the source that are not given here.

Legend:
Format in all cases: binding, rabbit
Caffeine-Ab = experiment: Competitive antigen ELISA, antibody specificity of caffeine-Ab; details: ideal antibody specificity result hypothesized; 0 = no inhibition or no higher than 40% at 5×10^−3 M
Experimental: (§1) BSA, antibodies, Tween™ 20 and horse radish peroxidase are added to buffers and water just prior to use. Urine samples are usually collected four hours after drinking a cup of coffee (instant or brewed with approximately 100 mg of caffeine per cup) and stored at −20° C. as 1-mL aliquots in 1.5-mL microtubes. For the ELISA, the urine samples are diluted with isotonic sodium phosphate buffer, pH 7.5 (310 mosM) to give concentrations of caffeine, 1.7-DMX and 1,7-DMU no higher than 3×10^−6 M in the microtiter plate wells. Wells of the ELISA plate are washed with a Nunc-Immuno wash 12 washer. Sixteen milliliters of a solution of 6.6 μg ml^−1 of isolated IgG antibodies is prepared in a 100 mM sodium carbonate buffer, pH 9.6, and 150 μL of this solution is pipetted in each well of a microtiter plate using a eight channel pipet (Brinkmann Transferpette™-8 50-200 μL) and 200 μL Flex tips from Brinkmann). After coating the wells with antibodies at 4° C. for 20 hours, the wells are washed 3 times with the isotonic sodium phosphate buffer containing 0.05% Tween™ 20 (IPBT) and properly drained by inverting the plate and absorbing the liquid on to a piece of paper towel. Thirty milliliters of a solution of a IPBT solution containing 1% BSA is prepared and 150 μL of this solution is pipetted in each well using a eight channel pipet (Brinkmann Transferpette ™-8 50-200 μL) and 200 μL yellow tips (Sarstedt yellow tips for P200 Gilson Pipetman). After 3 hours at room temperature, the wells are washed 3 times with IPBT solution and drained. Samples of 400 μL for determination of caffeine, 1,7-DMX and 1,7-DMU are prepared in 1.5-mL microtubes using Sarstedt yellow tips and a P200 Gilson Pipetman. Then, 200 μL of each sample are pipetted in duplicate in a Falcon 96-well microtest tissue culture plate according to the pattern shown in FIG. 22, using Sarstedt yellow tips and a P200 Gilson Pipetman. Using an eight channel pipet (Brinkmann Transferpette™-8 50-200 μL) and changing the tips of the eight channel pipet (200μL Flex tips from Brinkmann) at each row, 150 μL of samples are transferred in the corresponding wells of a 96-well ELISA microtiter plate coated with antibodies. After the addition of the samples, the microtiter plates are covered and left standing at room temperature for 2 h. While the plate is left standing the substrate buffer without the hydrogen peroxide and o-phenylenediamine hydrochloride is prepared (25 mM citric acid and 50 mM sodium phosphate dibasic buffer, pH 5.0). The microtiter plate is washed 3 times with the IPBT solution and 3 times with a 0.05% Tween™ 20 solution and drained. Then, 50 μL of hydrogen peroxide and 40 mg of o-phenylenediamine are added to the substrate buffer. One hundred fifty microliters (150 μL) of the substrate buffer solution is then added to each well using a eight channel pipet (Brinkmann Transferpette™-8 50-200 μL) and 200 μL Flex tips (Brinkmann). The microtiter plate is covered and shaken for 25-30 min at room temperature and the enzymatic reaction is stopped by adding 50 μL/well of a 2.5 N HCl solution using an eight channel pipet (Brinkmann Transferpette™-8 50-200 μL) and 200L Flex tips (Brinkmann).

1,7-DMX-Ab = experiment: Competitive antigen ELISA, antibody specificity of 1,7-DMX-Ab; details: ideal antibody specificity result hypothesized; 0 = no inhibition or no higher than 40% at 5×10^−3 M
Experimental: as §1

1,7-DMU-Ab = experiment: Competitive antigen ELISA, antibody specificity of 1,7-DMU-Ab; details: ideal antibody specificity result hypothesized; 0 = no inhibition or no higher than 40% at 5×10^−3 M
Experimental: as §1

AAMU-Ab = experiment: Competitive antigen ELISA, cross-reactivity of AAMU-Ab; details: 0 = absence of inhibition or inhibition no higher than 40% at the highest concentration tested (5×10^−3 M)
Experimental: (§2) Buffers and water without additives are filtered through millipore filters and kept for 1 week. BSA, antibodies, Tween™ 20 and horse radish peroxidase conjugates are added to these buffers and water just prior to use. Urine samples are usually collected 4 hours after drinking a cup of coffee (instant or brewed with approximately 100 mg of caffeine per cup) and stored at −80° C. The urine samples are diluted 10 times with sodium phosphate buffer (620 mosm, pH 7.50) and are subsequently diluted with water to give concentrations of AAMU and 1X no higher than 3×10^−6 M in the ELISA. All the pipettings are done with an eight-channel pipette, except those of the antibody and sample solutions. Starting with the last well, 100 μL of a carbonate buffer (100 mM, pH 9.6) containing 2.5 μg mL-1 antibodies are added to each well. After 90 min. at room temperature, the wells are washed three times with […] of TPB: isotonic sodium phosphate buffer (310 mosm, pH 7.50) containing 0.05% Tween™ 20.
(§3) After the initial wash, unoccupied sites are blocked by incubation for 90 min. at room temperature with 100 μL TBP containing 3% BSA. The wells are washed four times with 100 μL TPB. […] The microplate is gently shaken with an orbital shaker at room temperature for 3-4 hours. The wells are washed three times with 100 μL TPB containing 1% BSA and three times with water containing 0.05% Tween ™ 20. To the washed plate is added 150 μL of a substrate buffer composed of citric acid (25 mM) and sodium phosphate dibasic buffer (50 mM, pH 5.0) containing 0.06% hydrogen peroxide and 0.04% o-phenylenediamine hydrochloride.
(§4) Buffers and water without additives were filtered through millipore filters and kept for 1 week. BSA, antibodies, Tween ™ 20 and horse radish peroxidase conjugates were added to these buffers and water just prior to use. Urine samples were usually collected 4 hours after drinking a cup of coffee (instant or brewed with approximately 100 mg of caffeine per cup) and stored at 80° C. They were diluted 10 times with sodium phosphate buffer (620 mosm, pH 7.50) and were subsequently diluted with water to give concentrations of AAMU and 1X no higher than 3×10^−6 M in the ELISA. All the pipettings were done with an eight-channel pipette, except those of the antibody and sample solutions. Starting with the last well, 100 μL of a carbonate buffer (100 mM, pH 9.6) containing 2.5 μg mL^−1 antibodies was pipetted. After 90 min. at room temperature, the wells were washed three times with 100 μL of TPB: isotonic sodium phosphate buffer (310 mosm, pH 7.50) containing 0.05% Tween™ 20.
(§5) After the initial wash, unoccupied sites were blocked by incubation for 90 min. at room temperature with 100 μL TBP containing 3% BSA. The wells were washed four times with 100 μL TPB. […] The microplate was gently shaken with an orbital shaker at room temperature for 3-4 hours. The wells were washed three times with 100 μL with TPB containing 1% BSA and three times with water containing 0.05% Tween™ 20. To the washed plate was added 150 μL of a substrate buffer composed of citric acid (25 mM) and sodium phosphate dibasic buffer (50 mM, pH 5.0) containing 0.06% hydrogen peroxide and 0.04% o-phenylenediamine hydrochloride. After 20 min. at room temperature with shaking, the reaction was stopped with 50 μL of 2.5 N HCl.
(§6) The cross reactivities of AAMU-Ab and 1X-Ab were tested using a wide variety of caffeine metabolites and structural analogs (Table 5 below).

1X-Ab = experiment: Competitive antigen ELISA, cross-reactivity of 1X-Ab; details: for % Cross-Reaction 1X-Ab: 0 = absence of inhibition or inhibition no higher than 40% at the highest concentration tested (5×10^−3 M)
Experimental: as §2, §3, §4, §5, §6

| SMILES | % Cross-reaction Caffeine-Ab (Caffeine-Ab) [%] | % Cross-reaction 1,7-DMX-Ab (1,7-DMX-Ab) | % Cross-reaction 1,7-DMU-Ab (1,7-DMU-Ab) [%] | % Cross-Reaction AAMU-Ab (AAMU-Ab) [%] | % Cross-Reaction 1X-Ab (1X-Ab) [%] | IC50 (1X-Ab; read-out: concentration required for 50% inhibition in the competitive antigen ELISA, 1X-Ab) [µM] |
| --- | --- | --- | --- | --- | --- | --- |
| Cn1c(=O)c2c(ncn2C)n(C)c1=O [1,3,7-Trimethyl Xanthine (Caffeine), 1,3,7-Trimethyl Xanthine] | 100 | 0^a % | 0 | 0 | 0 | – |
| Cn1c(=O)c2c([nH]c(=O)n2C)n(C)c1=O [1,3,7-Trimethyluric acid] | 0 | 0% | 0 | – | – | – |
| Cn1c(=O)c2[nH]cnc2n(C)c1=O [1,3-Dimethyl Xanthine (Theophylline), 1,3-Dimethyl Xanthine] | 0 | 0% | 0 | 0 | 0.2 | – |
| Cn1c(=O)c2[nH]c(=O)[nH]c2n(C)c1=O [1,3-Dimethyluric acid] | 0 | 0% | 0 | – | – | – |
| Cn1c(=O)[nH]c2ncn(C)c2c1=O [1,7-Dimethyl Xanthine (Paraxanthine), 1,7-Dimethyl Xanthine] | 0 | 100% | 0 | 0 | 0.5 | – |
| Cn1c(=O)[nH]c2[nH]c(=O)n(C)c2c1=O [1,7-Dimethyluric acid] | 0 | 0% | 100 | 0 | 0 | – |
| Cn1c(=O)[nH]c2nc[nH]c2c1=O [1-Methyl Xanthine (1X), 1-Methyl Xanthine] | 0 | 0% | 0 | 0 | 100 | 10 |
| Cn1c(=O)[nH]c2[nH]c(=O)[nH]c2c1=O [1-Methyluric acid] | 0 | 0% | 0 | 0 | 11 | – |
| Cn1cnc2c1c(=O)[nH]c(=O)n2C [3,7-Dimethyl Xanthine (Theobromine), 3,7-Dimethyl Xanthine] | 0 | 0% | 0 | 0 | 0 | – |
| Cn1c(=O)[nH]c(=O)c2c1[nH]c(=O)n2C [3,7-Dimethyluric acid] | 0 | 0% | 0 | – | – | – |
